LC retention time data for 91 compounds are collected here from the RepoRT retention time repository (doi:10.1007/s11356-017-9929-x).

A short description of this series: RP, GL Sciences Inertsil ODS-4, 150 × 2.1 mm, 3 µm, 40 °C, 0.3 mL/min, estimated dead time 1.1 min; A: water + 5 mM ammonium acetate; B: methanol + 5 mM ammonium acetate; gradient (min/%B) 0/5 30/95 50/95. Particulars: stereoisomer not certain.
In the case of `CC(C)NCC(O)c1ccc(NS(C)(=O)=O)cc1` (stereo unspecified), the LC retention time was 9.08 min.

`CC(C)NCC(O)COc1cccc2ccccc12` (stereo unspecified): the LC retention time was 21.8 min. Then `COC(=O)c1ccc(CNS(C)(=O)=O)cc1S(=O)(=O)NC(=O)Nc1nc(OC)cc(OC)n1`, with 17.4 min; and `[2H]C([2H])([2H])N(C(=O)Oc1nc(N(C)C)nc(C)c1C)C([2H])([2H])[2H]`, with 22.8 min. The value for `Oc1ccc2nc(-c3cscn3)[nH]c2c1` was 16.1 min; that for `CC12C=CC(=O)C=C1CCC1C2C(O)CC2(C)C1CCC2(O)C(=O)CO` (stereo unspecified) was 22.2 min; that for `CC(Oc1ccc2ccccc2c1)C(=O)Nc1ccccc1` (stereo unspecified) was 28.8 min. The value for `CC#Cc1cc(C)nc(Nc2ccccc2)n1` was 28.1 min.

On to `CC1=NNC(=O)N(N=Cc2cccnc2)C1`, for which the LC retention time was 13 min. For the compound `COC(=O)c1sccc1S(=O)(=O)NC(=O)Nc1nc(C)nc(OC)n1`, the LC retention time is 13.9 min. Consider `Cc1cc(=O)n(-c2ccccc2)n1C`, for which the LC retention time was 15.4 min. The value for `CCOc1nc(NC)nc(NC(=O)NS(=O)(=O)c2ccccc2C(=O)OC)n1` was 17.7 min; that for `CCOC(=O)c1cnn(C)c1S(=O)(=O)NC(=O)Nc1nc(OC)cc(OC)n1` was 18.2 min. Then `CNC(=O)N(C)c1nc2ccccc2s1`, with 23.8 min; and `CC(C)(C)NCC(O)c1ccc(O)c(CO)c1` (stereo unspecified), with 9.3 min. Then `COC(=O)c1ccccc1S(=O)(=O)NC(=O)Nc1nc(C)nc(OC)n1`, with 13.9 min. In the case of `CNC(=C[N+](=O)[O-])NCCSCc1ccc(CN(C)C)o1`, the LC retention time was 12.5 min. Then `COC(=O)c1ccccc1S(=O)(=O)NC(=O)N(C)c1nc(C)nc(OC)n1`, with 16.9 min; and `CSc1nnc(C(C)(C)C)c(=O)n1N`, with 20.6 min. With `CCCC(=NOCC)C1=C(O)CC(CC(C)SCC)CC1=O` (stereo unspecified), the LC retention time was 25.6 min. Then `CCC(C)c1ccccc1OC(=O)NC` (stereo unspecified), with 25.2 min; and `COC(=O)NN=Cc1c[n+]([O-])c2ccccc2[n+]1[O-]`, with 15 min; and `[2H]C([2H])([2H])NC(=O)ON=C(C)SC`, with 11.9 min.

Regarding `Nc1ccc(S(=O)(=O)Nc2ncccn2)cc1`, the LC retention time was 8.05 min. As for `CC(=O)CC(c1ccccc1)c1c(O)c2ccccc2oc1=O` (stereo unspecified), the LC retention time is 19.1 min.

On to `CCNc1nc(NC(C)C)nc(SC)n1`, for which the LC retention time was 25.9 min. Then `Cc1cccc2sc3nncn3c12`, with 18.9 min; and `CN1CCN(CC(=O)N2c3ccccc3C(=O)Nc3cccnc32)CC1`, with 15.8 min; and `CC(C)C1(C)N=C(c2nc3ccccc3cc2C(=O)O)NC1=O` (stereo unspecified), with 14.7 min.

On to `OCCN(CCO)c1nc(N2CCCCC2)c2nc(N(CCO)CCO)nc(N3CCCCC3)c2n1`, for which the LC retention time is 28.4 min. Then `COc1ccc2c(c1)C13CCCCC1C(C2)N(C)CC3` (stereo unspecified), with 24.2 min; and `COc1cc(C)nc(-n2nc(C)cc2OC)n1`, with 21.3 min; and `Cc1ccnc(NS(=O)(=O)c2ccc(N)cc2)n1`, with 11.6 min. Regarding `COc1cc(OC)nc(NC(=O)NS(=O)(=O)Nc2ccccc2C(=O)C2CC2)n1`, the LC retention time was 23.6 min.

Regarding `[2H]C([2H])([2H])OP(N)(=O)SC([2H])([2H])[2H]` (stereo unspecified), the LC retention time is 4.22 min. The value for `CSc1nc(NC(C)C)nc(NC(C)C)n1` was 27.6 min; that for `CCOC(=O)CCN(SN(C)C(=O)Oc1cccc2c1OC(C)(C)C2)C(C)C` was 31.1 min; that for `CCC1CCCC(OC2CCC(N(C)C)C(C)O2)C(C)C(=O)C2=CC3C(C=CC4CC(OC5OC(C)C(OC)C(OC)C5OC)CC43)C2CC(=O)O1` (stereo unspecified) was 34.5 min. With `COc1cc(OC)nc(NC(=O)NS(=O)(=O)c2cc(NC=O)ccc2C(=O)N(C)C)n1`, the LC retention time was 15.9 min. With `COC=C(C(=O)OC)c1ccccc1Oc1cc(Oc2ccccc2C#N)ncn1`, the LC retention time was 26.1 min. The value for `CNC(=O)C(=NOC)c1ccccc1Oc1ccccc1` was 24.6 min; that for `CN(C)CCC=C1c2ccccc2CCc2ccccc21` was 28.1 min; that for `Nc1ccc(S(=O)(=O)Nc2nccs2)cc1` was 10.6 min. The value for `Cc1nnc(NS(=O)(=O)c2ccc(N)cc2)s1` was 9.03 min.

Take `[2H]c1c([2H])c([2H])c2[nH]c(NC(=O)OC)nc2c1[2H]`: the LC retention time is 17.1 min. The value for `CN(C)CCCN1c2ccccc2CCc2ccccc21` was 26 min. The value for `COc1cc(C)c(Cc2cnc(N)nc2N)cc1OC` was 17.6 min.

Take `CN1C2CC(OC(=O)C(CO)c3ccccc3)CC1C1OC12` (stereo unspecified): the LC retention time was 16.4 min. Then `[2H]C([2H])([2H])Oc1cc(NS(=O)(=O)c2ccc(N)cc2)nc(OC([2H])([2H])[2H])n1`, with 15.1 min; and `CCC1OC(=O)C(C)C(OC2CC(C)(OC)C(O)C(C)O2)C(C)C(OC2OC(C)CC(N(C)C)C2O)C(C)(OC)CC(C)C(=O)C(C)C(O)C1(C)O` (stereo unspecified), with 27.2 min; and `CN(C)C(=O)Nc1cc(C(C)(C)C)on1`, with 21.6 min. The value for `CCOc1ccc(NC(C)=O)cc1` was 18.5 min. The value for `COc1cc(OC)nc(NC(=O)NS(=O)(=O)c2c(-c3nnn(C)n3)cnn2C)n1` was 14.7 min; that for `COCCc1ccc(OCC(O)CNC(C)C)cc1` (stereo unspecified) was 17.8 min. Turning to `COCCOc1ccccc1S(=O)(=O)NC(=O)Nc1nc(OC)nc(OC)n1`, the LC retention time was 15.5 min. Regarding `COc1cc(NS(=O)(=O)c2ccc(N)cc2)ncn1`, the LC retention time was 11.8 min. The value for `CCS(=O)(=O)c1nc2ccccn2c1S(=O)(=O)NC(=O)Nc1nc(OC)cc(OC)n1` was 16.3 min. For the compound `OC(CCCN1CCCCC1)(c1ccccc1)c1ccccc1`, the LC retention time is 23.2 min. Turning to `COP(=S)(OC)Oc1ccc(S(C)=O)c(C)c1` (stereo unspecified), the LC retention time is 22.2 min. Regarding `C#CC1(OC(C)=O)CCC2C3CCC4=CC(=NO)CCC4C3CCC21CC` (stereo unspecified), the LC retention time is 30.3 min. The value for `[2H]C([2H])([2H])N=C(NC#N)NCCSCc1nc[nH]c1C` was 13.3 min. Then `CCCC1CC(C(=O)NC(C(C)O)C2OC(SC)C(O)C(O)C2O)N(C)C1` (stereo unspecified), with 21 min; and `CCC(C(=O)O)C1CCC(C)C(C(C)C(O)C(C)C(=O)C(CC)C2OC3(C=CC(O)C4(CCC(C)(C5CCC(O)(CC)C(C)O5)O4)O3)C(C)CC2C)O1` (stereo unspecified), with 35.5 min; and `Cc1ccc(NC(=O)NC(C)(C)c2ccccc2)cc1`, with 26.7 min. Then `CC(C)NCC(O)COc1cccc2[nH]c3ccccc3c12` (stereo unspecified), with 20 min; and `CCC1OC(=O)C(C)C(OC2CC(C)(OC)C(O)C(C)O2)C(C)C(OC2OC(C)CC(N(C)C)C2O)C(C)(O)CC(C)C(=O)C(C)C(O)C1(C)O` (stereo unspecified), with 25.5 min; and `CNC(=O)Oc1cccc2c1OC(C)(C)C2`, with 21.4 min.

Take `CN=C(NC#N)NCCSCc1nc[nH]c1C`: the LC retention time was 13.3 min. The value for `CC1=CC(O)CC(=O)Cc2nc(co2)C(=O)N2CCC=C2C(=O)OC(C(C)C)C(C)C=CC(=O)NCC=C1` (stereo unspecified) was 24.4 min. For the compound `CC(C(O)c1ccc(O)cc1)N1CCC(Cc2ccccc2)CC1` (stereo unspecified), the LC retention time was 21 min.

Take `CNC(=O)N(C)c1nnc(C(C)(C)C)s1`: the LC retention time is 21.7 min.

`CC(C)NCC(O)COc1ccc(COCCOC(C)C)cc1` (stereo unspecified): the LC retention time was 20 min.

On to `[2H]c1c([2H])c(S(=O)(=O)Nc2cc(C)on2)c([2H])c([2H])c1N`, for which the LC retention time was 9.83 min. Then `CC12CCC(=O)C=C1CCC1C2CCC2(C)C(O)CCC12` (stereo unspecified), with 26.6 min.

`CC(C)NCC(O)COc1ccc(CCOCC2CC2)cc1` (stereo unspecified): the LC retention time was 21.6 min. The value for `CCCCc1c(C)nc(N(C)C)[nH]c1=O` was 23.4 min; that for `CON=C(C)c1cccc(Oc2nc(OC)cc(OC)n2)c1C(=O)OC` was 26.5 min; that for `COC(=O)c1ccccc1CS(=O)(=O)NC(=O)Nc1nc(OC)cc(OC)n1` was 22.1 min. For `CSC1=NC(C)(c2ccccc2)C(=O)N1Nc1ccccc1` (stereo unspecified), the LC retention time is 26.3 min. Then `NC(=O)N1c2ccccc2C=Cc2ccccc21`, with 21.9 min; and `COc1cc(NS(=O)(=O)c2ccc(N)cc2)nc(OC)n1`, with 15.5 min.

As for `CC(=O)CCCCn1c(=O)c2c(ncn2C)n(C)c1=O`, the LC retention time is 17.4 min. `[2H]C([2H])([2H])NC(=O)Oc1cccc2c1OC(C)(C)C2`: the LC retention time is 20.5 min.

With `CC(C)(C)NCC(O)c1cc(O)cc(O)c1` (stereo unspecified), the LC retention time is 8.97 min. Then `CC1CCCCC1NC(=O)Nc1ccccc1` (stereo unspecified), with 25.6 min; and `CCC1CCCC(OC2CCC(N(C)C)C(C)O2)C(C)C(=O)C2=CC3C(C=C(C)C4CC(OC5OC(C)C(OC)C(OC)C5OC)CC43)C2CC(=O)O1` (stereo unspecified), with 34.9 min.

As to `Cc1nc(N(C)C)nc(OC(=O)N(C)C)c1C`, the LC retention time is 23.4 min. The value for `COc1ccc(CCN(C)CCCC(C#N)(c2ccc(OC)c(OC)c2)C(C)C)cc1OC` (stereo unspecified) was 26.7 min; that for `CCOC(=O)NCCOc1ccc(Oc2ccccc2)cc1` was 28.8 min.

`Cc1nn(C)c(Oc2ccccc2)c1C=NOCc1ccc(C(=O)OC(C)(C)C)cc1`: the LC retention time is 33.5 min.

On to `Cc1cc(C)cc(C(=O)N(NC(=O)c2ccc3c(c2C)CCCO3)C(C)(C)C)c1`, for which the LC retention time is 27.9 min.
